According to patent publication US8076514B2, “Phenyl compounds and their use in the treatment of Type II diabetes” (Eli Lilly and Company, priority 2005, dated 2011):
Counter-ions that a name gives are not always drawn.

Target: T1, human recombinant DPIV enzyme (Homo sapiens, UniProt P27487)
T1 construct: Secreted DPIV (lacking membrane anchor) is enriched from HEK293 cell culture supernatant; made in house; host or cells: HEK293
Assay: Human Recombinant DPIV Activity Assay (fluorometric end point, Gly-Pro-AMC substrate)
Format: biochemical
Details: enriched human recombinant DPIV, Gly-Pro-AMC 0.02 mM, 12 points concentration response curve
Protocol: Human Recombinant DPIV Activity Assay The DPIV assay uses a fluorometric end point assay (excitation 355 nm; emission 460 nm), enriched human recombinant DPIV enzyme (21.3 μU/μl), and Gly-Pro-AMC (Bachem I-1225) as substrate (0.02 mM). Secreted DPIV (lacking membrane anchor) is enriched from HEK293 cell culture supernatant by ultrafiltration, ultra-centrifugation, and size-exclusion chromatography. IC50 values of the compounds are calculated based on a 12 points concentration response curve. Each concentration is measured in duplicate. The assay is validated by plate variability and conformity, inter-plate variability, signal window, and minimum significant ration of IC50. A MSR is calculated based on a test/retest analysis and a retrospective analysis. The MSR value is 1.8.

T1 sequence (P27487 29-766 limits assumed): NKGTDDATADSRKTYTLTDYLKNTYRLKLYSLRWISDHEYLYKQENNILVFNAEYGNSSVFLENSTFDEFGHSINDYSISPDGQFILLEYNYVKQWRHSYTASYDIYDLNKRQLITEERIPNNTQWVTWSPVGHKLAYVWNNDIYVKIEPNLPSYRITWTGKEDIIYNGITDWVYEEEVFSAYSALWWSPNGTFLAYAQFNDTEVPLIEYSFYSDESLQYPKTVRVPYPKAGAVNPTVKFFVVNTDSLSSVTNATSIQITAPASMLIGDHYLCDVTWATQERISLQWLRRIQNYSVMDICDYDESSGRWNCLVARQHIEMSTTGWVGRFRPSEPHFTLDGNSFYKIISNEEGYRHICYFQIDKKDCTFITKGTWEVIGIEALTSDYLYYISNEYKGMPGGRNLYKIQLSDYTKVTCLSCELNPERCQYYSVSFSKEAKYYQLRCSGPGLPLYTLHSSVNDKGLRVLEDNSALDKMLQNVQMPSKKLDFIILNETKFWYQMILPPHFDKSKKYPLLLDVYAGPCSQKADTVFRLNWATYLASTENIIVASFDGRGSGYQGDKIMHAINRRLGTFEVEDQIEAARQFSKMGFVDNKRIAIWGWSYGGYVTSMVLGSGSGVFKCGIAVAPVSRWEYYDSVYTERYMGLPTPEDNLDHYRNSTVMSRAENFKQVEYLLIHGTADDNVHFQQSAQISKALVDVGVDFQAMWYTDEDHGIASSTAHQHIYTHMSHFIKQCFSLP

| SMILES | IC50 |
| --- | --- |
| COc1ccc(C(=O)NC(C)(C)C)c(C[C@H](O)[C@H](N)Cc2ccccc2F)c1 [Example 6, 2-[(2S,3R)-3-Amino-4-(2-fluoro-phenyl)-2-hydroxy-butyl]-N-tert-butyl-4-methoxy-benzamide Hydrochloride] | 98 nM |
| CC(C)(C)NC(=O)c1cc(Cl)ccc1C[C@H](O)[C@H](N)Cc1ccccc1F [Example 7, 2-[(2S,3R)-3-Amino-4-(2-fluoro-phenyl)-2-hydroxy-butyl]-N-tert-butyl-5-chloro-benzamide Hydrochloride] | 134 nM |
